Results: patent US7977363B2, “Biphenyl-thiazolo-carboxamides” (Bayer Cropscience AG, priority 2004, dated 2011)

Tested on: not listed separately
Experiment: Log P determination by HPLC on reversed-phase column (EEC Directive 79/831, Annex V.A8)
Assay type: physicochemical
Conditions: reversed-phase HPLC column (C18), pH 2.3; read-out: log P (pH 2.3)
Description: The determination of the Log P values occurred according to EEC Directive 79/831, Annex V.A8 using HPLC (High Performance Liquid Chromatography) on a reversed-phase column (C 18). Temperature: 43° C. Eluents for determination in the acidic range (pH 2.3): 0.1% aqueous phosphoric acid, acetonitrile; linear gradient of 10% acetonitrile to 90% acetonitrile. Calibration took place using unbranched alkane-2-ones (with 3 to 16 carbon atoms) with known Log P values (the Log P values were determined on the basis of the retention times by way of linear interpolation between two consecutive alkanones).

Row | Compound | chromatographic logP
1 | Cc1nc(C(F)(F)F)c(C(=O)Nc2ccc(F)cc2-c2ccc(Cl)c(F)c2)s1 [Compound 2.18, N-(4′-chloro-3′,5-difluorobiphenyl-2-yl)-2-methyl-4-(trifluoromethyl)-1,3-thiazole-5-carboxamide] | 3.67
2 | Nc1ccc(F)cc1-c1ccc(Cl)c(F)c1 [III-1, 4′-chloro-3′,5-difluorobiphenyl-2-amine] | 3.18

Same assay, conditions: reversed-phase HPLC column (C18); HPLC, C18 reversed phase, 43° C., acidic range (pH 2.3); read-out: Log P

Row | Compound | chromatographic logP
3 | Cc1nc(C(F)(F)F)c(C(=O)Nc2ccc(F)cc2-c2ccc(Cl)c(Cl)c2)s1 [Compound 2.11, N-(3′,4′-dichloro-5-fluorobiphenyl-2-yl)-2-methyl-4-(trifluoromethyl)-1,3-thiazole-5-carboxamide] | 3.93
4 | Cc1nc(C(F)F)c(C(=O)Nc2ccc(F)cc2-c2ccc(Cl)c(Cl)c2)s1 [Compound 2.12] | 3.63
5 | Cc1nc(C(F)F)c(C(=O)Nc2c(F)cccc2-c2ccc(Cl)c(Cl)c2)s1 [Compound 2.13] | 3.43
6 | Cc1nc(C(F)(F)F)c(C(=O)Nc2c(F)cccc2-c2ccc(Cl)c(Cl)c2)s1 [Compound 2.14] | 3.68
7 | Cc1nc(C(F)F)c(C(=O)Nc2c(F)cccc2-c2ccc(Cl)c(F)c2)s1 [Compound 2.16] | 3.16
8 | Cc1nc(C(F)F)c(C(=O)Nc2ccc(F)cc2-c2ccc(Cl)c(F)c2)s1 [Compound 2.17] | 3.36
9 | Cc1nc(C(F)(F)F)c(C(=O)Nc2ccc(F)cc2-c2ccc(Cl)c(C)c2)s1 [Compound 2.20] | 3.99
10 | Cc1nc(C(F)F)c(C(=O)Nc2ccc(F)cc2-c2ccc(Cl)c(C)c2)s1 [Compound 2.21] | 3.68

Tested on: Podosphaera leucotricha
Experiment: Podosphaera Test (Apple)/Protective
Assay type: in vivo
Conditions: 240 h, protective, evaluated 10 days after inoculation, read-out: Efficacy in %
Description: (§1) [table] To produce a suitable preparation of active compound, 1 part by weight of active compound is mixed with the stated amounts of solvent and emulsifier, and the concentrate is diluted with water to the desired concentration. In order to test the protective activity, young plants are sprayed with the active compound preparation at the stated application rate. After the spray coating dries, the plants are inoculated with an aqueous spore suspension of Podosphaera leucotricha. The plants are then placed in the greenhouse at approx. 23° C. and at a relative humidity of approx. 70%. The results are evaluated 10 days after the inoculation. An efficacy of 0% corresponds to that of the control, while an efficacy of 100% means that no infestation is observed.

Row | Compound | pest or weed control at 100 g/ha
11 | Cc1nc(C(F)F)c(C(=O)Nc2ccc(F)cc2-c2ccc(Cl)c(Cl)c2)s1 [drawing 47] | 100%
12 | Cc1nc(C(F)F)c(C(=O)Nc2c(F)cccc2-c2ccc(Cl)c(Cl)c2)s1 [drawing 48] | 100%
13 | Cc1nc(C(F)(F)F)c(C(=O)Nc2ccc(F)cc2-c2ccc(Cl)c(Cl)c2)s1 [drawing 49] | 100%
14 | Cc1nc(C(F)(F)F)c(C(=O)Nc2c(F)cccc2-c2ccc(Cl)c(Cl)c2)s1 [drawing 50] | 100%
15 | Cc1nc(C(F)F)c(C(=O)Nc2c(F)cccc2-c2ccc(Cl)c(F)c2)s1 [drawing 51] | 100%
16 | Cc1nc(C(F)(F)F)c(C(=O)Nc2ccc(F)cc2-c2ccc(Cl)c(F)c2)s1 [drawing 52] | 100%
17 | Cc1nc(C(F)(F)F)c(C(=O)Nc2ccc(F)cc2-c2ccc(Cl)c(C)c2)s1 [drawing 53] | 100%
18 | Cc1nc(C(F)F)c(C(=O)Nc2ccc(F)cc2-c2ccc(Cl)c(C)c2)s1 [drawing 54] | 100%
19 | Cc1nc(C(F)F)c(C(=O)Nc2ccc(F)cc2-c2cccc(C)c2F)s1 [drawing 55] | 94%

Tested on: apple scab fungus Venturia inaequalis
Experiment: Venturia Test (Apple)/Protective
Assay type: in vivo
Conditions: 240 h, protective, evaluated 10 days after inoculation, read-out: Efficacy in %
Description: as §1, with “conidial” for “spore”, “the apple scab fungus Venturia inaequalis and then remain in an incubation cabinet for 1 day at approx. 20° C. and 100% relative humidity.” for “Podosphaera leucotricha.”, “21°” for “23°”, “90%.” for “70%.”

Row | Compound | pest or weed control at 100 g/ha
20 | Cc1nc(C(F)F)c(C(=O)Nc2ccc(F)cc2-c2ccc(Cl)c(Cl)c2)s1 [drawing 56] | 100%
21 | Cc1nc(C(F)F)c(C(=O)Nc2c(F)cccc2-c2ccc(Cl)c(Cl)c2)s1 [drawing 57] | 100%
22 | Cc1nc(C(F)(F)F)c(C(=O)Nc2ccc(F)cc2-c2ccc(Cl)c(Cl)c2)s1 [drawing 58] | 100%
23 | Cc1nc(C(F)(F)F)c(C(=O)Nc2c(F)cccc2-c2ccc(Cl)c(Cl)c2)s1 [drawing 59] | 100%
24 | Cc1nc(C(F)F)c(C(=O)Nc2c(F)cccc2-c2ccc(Cl)c(F)c2)s1 [drawing 60] | 100%
25 | Cc1nc(C(F)(F)F)c(C(=O)Nc2ccc(F)cc2-c2ccc(Cl)c(F)c2)s1 [drawing 61] | 100%
26 | Cc1nc(C(F)(F)F)c(C(=O)Nc2ccc(F)cc2-c2ccc(Cl)c(C)c2)s1 [drawing 62] | 100%
27 | Cc1nc(C(F)F)c(C(=O)Nc2ccc(F)cc2-c2ccc(Cl)c(C)c2)s1 [drawing 63] | 100%
28 | Cc1nc(C(F)F)c(C(=O)Nc2ccc(F)cc2-c2cccc(C)c2F)s1 [drawing 64] | 98%

Tested on: Botrytis cinerea
Experiment: Botrytis Test (Bean)/Protective
Assay type: in vivo
Conditions: 48 h, protective, evaluated 2 days after inoculation, read-out: Efficacy in %
Description: [table] To produce a suitable preparation of active compound, 1 part by weight of active compound is mixed with the stated amounts of solvent and emulsifier, and the concentrate is diluted with water to the desired concentration. In order to test the protective activity, young plants are sprayed with the active compound preparation at the stated application rate. After the spray coating dries, 2 small pieces of agar that are infested with Botrytis cinerea are placed on each leaf. The inoculated plants are placed in a darkened chamber at 20° C. and 100% relative humidity. The size of the infestation blotches on the leaves is evaluated 2 days after the inoculation. An efficacy of 0% corresponds to that of the control, while an efficacy of 100% means that no infestation is observed.

Row | Compound | pest or weed control at 500 g/ha
29 | Cc1nc(C(F)F)c(C(=O)Nc2ccc(F)cc2-c2ccc(Cl)c(Cl)c2)s1 [drawing 65] | 100%
30 | Cc1nc(C(F)F)c(C(=O)Nc2c(F)cccc2-c2ccc(Cl)c(Cl)c2)s1 [drawing 66] | 100%
31 | Cc1nc(C(F)(F)F)c(C(=O)Nc2ccc(F)cc2-c2ccc(Cl)c(Cl)c2)s1 [drawing 67] | 99%
32 | Cc1nc(C(F)(F)F)c(C(=O)Nc2c(F)cccc2-c2ccc(Cl)c(Cl)c2)s1 [drawing 68] | 98%
33 | Cc1nc(C(F)F)c(C(=O)Nc2c(F)cccc2-c2ccc(Cl)c(F)c2)s1 [drawing 69] | 100%
34 | Cc1nc(C(F)(F)F)c(C(=O)Nc2ccc(F)cc2-c2ccc(Cl)c(F)c2)s1 [drawing 70] | 100%
35 | Cc1nc(C(F)(F)F)c(C(=O)Nc2ccc(F)cc2-c2ccc(Cl)c(C)c2)s1 [drawing 71] | 100%
36 | Cc1nc(C(F)F)c(C(=O)Nc2ccc(F)cc2-c2ccc(Cl)c(C)c2)s1 [drawing 72] | 100%
37 | Cc1nc(C(F)F)c(C(=O)Nc2ccc(F)cc2-c2cccc(C)c2F)s1 [drawing 73] | 98%

Tested on: Pyrenophora teres
Experiment: Pyrenophora teres Test (Barley)/Protective
Assay type: in vivo
Conditions: protective, 500 g/ha, evaluated 7 days after inoculation
Description: [table] To produce a suitable preparation of active compound, 1 part by weight of active compound is mixed with the stated amounts of solvent and emulsifier, and the concentrate is diluted with water to the desired concentration. In order to test the protective activity, young plants are sprayed with the active compound preparation at the stated application rate. After the spray coating dries, the plants are sprayed with a conidial suspension of Pyrenophora teres. The plants remain in an incubation cabinet for 48 hours at 20° C. and 100% relative humidity. The plants are then placed in a greenhouse at a temperature of approx. 20° C. and a relative humidity of 80%. The results are evaluated 7 days after the inoculation. An efficacy of 0% corresponds to that of the control, while an efficacy of 100% means that no infestation is observed.

Row | Compound | Efficacy in %
38 | Cc1nc(C(F)F)c(C(=O)Nc2ccc(F)cc2-c2ccc(Cl)c(Cl)c2)s1 [drawing 74] | 100%
39 | Cc1nc(C(F)F)c(C(=O)Nc2c(F)cccc2-c2ccc(Cl)c(F)c2)s1 [drawing 75] | 100%
40 | Cc1nc(C(F)(F)F)c(C(=O)Nc2ccc(F)cc2-c2ccc(Cl)c(F)c2)s1 [drawing 76] | 100%
41 | Cc1nc(C(F)F)c(C(=O)Nc2ccc(F)cc2-c2ccc(Cl)c(F)c2)s1 [drawing 77] | 100%
42 | Cc1nc(C(F)F)c(C(=O)Nc2ccc(F)cc2-c2ccc(Cl)c(C)c2)s1 [drawing 78] | 100%
43 | Cc1nc(C(F)F)c(C(=O)Nc2ccc(F)cc2-c2cccc(C)c2F)s1 [drawing 79] | 100%

Tested on: Alternaria solani
Experiment: Alternaria Test (Tomato)/Protective
Assay type: in vivo
Conditions: protective, 750 g/ha, evaluated 7 days after inoculation
Description: [table] To produce a suitable preparation of active compound, 1 part by weight of active compound is mixed with the stated amounts of solvent and emulsifier, and the concentrate is diluted with water to the desired concentration. In order to test the protective activity, young tomato plants are sprayed with the active compound preparation at the stated application rate. One day after treatment, the plants are inoculated with a spore suspension of Alternaria solani and then remain for 24 hours at 100% relative humidity and 20° C. The plants are then placed into in environment of 96% relative humidity at a temperature of 20° C. The results are evaluated 7 days after the inoculation. An efficacy of 0% corresponds to that of the control, while an efficacy of 100% means that no infestation is observed.

Row | Compound | Efficacy in %
44 | Cc1nc(C(F)F)c(C(=O)Nc2c(F)cccc2-c2ccc(Cl)c(F)c2)s1 [drawing 80] | 100%
45 | Cc1nc(C(F)(F)F)c(C(=O)Nc2ccc(F)cc2-c2ccc(Cl)c(F)c2)s1 [drawing 81] | 100%
46 | Cc1nc(C(F)F)c(C(=O)Nc2ccc(F)cc2-c2ccc(Cl)c(F)c2)s1 [drawing 82] | 98%
